# Source: patent US5438052A, “Cephalosporin derivatives” (Hoffmann-La Roche Inc., priority 1991, dated 1995)
# Counter-ions that a name gives are not always drawn. Like-named read-outs stand apart in the source and are kept apart here.
# Tests used:
# E. coli 25922 [1] = assay: Experimental systemic septicaemia in the mouse; format: in vivo; conditions: 96 h
# Protocol: (§1) 2. Experimental systemic septicaemia in the mouse
# (§2) An experimental systemic septicaemia was produced in albino mice weighing 16-20 g by intraperitoneally injecting into the experimental animals a sample of a dilute culture of the test organism which had been grown overnight. The sample administered is calculated such that the dosage administered is about 5-100 times greater than the dosage which is required to kill 50% of untreated experimental animals within 48 hours. The bacteria were injected as a suspension in the culture broth. Groups of 5 experimental animals each were used not only for the control, but also for the treatment for each dosage tested. The products in accordance with the invention were administered subcutaneously as a suspension in Tween 80 (2%), whereby the concentrations were chosen such that each experimental animal received 500 μl per administration. The respective concentrations were administered twice, namely 1 and 3 hours after the infection (in the case of P. aeruginosa three times, namely 1, 3 and 5 hours after the infection). The ED50 is that dosage which protects 50% of the experimental animals and was calculated by means of the Probit method on the basis of the survial rate after 4 days following the infection. The ED50 values in mg/kg s.c. (subcutaneous) for representatives of the class of substance in accordance with the invention are given in Table 2 hereinafter.
# [2] = tested on: Pseudomonas aeruginosa BA; assay: Experimental systemic septicaemia in the mouse; format: in vivo; conditions: sc, 96 h
# Protocol: as §1, §2
# P. vulgaris 1028 = assay: Minimum inhibitory concentration in vitro, agar dilution method; format: cell-based; conditions: Proteus vulgaris
# From the text: (§3) 1. Minimum Inhibitory Concentration in vitro
# (§4) The activities ascertained, minimum inhibitory concentration (MIC) in μg/ml, are compiled in Table 1 hereinafter: […]
# P. aeruginosa 799/WT = assay: as above; format: cell-based; conditions: Pseudomonas aeruginosa
# From the text: as §3, §4
# K. oxytoca 1082 = assay: as above; format: cell-based; conditions: Klebsiella oxytoca
# From the text: as §3, §4
# P. aeruginosa 799/61 = assay: as above; format: cell-based; conditions: Pseudomonas aeruginosa
# From the text: as §3, §4
# S. aureus 6538 = assay: as above; format: cell-based; conditions: Staphylococcus aureus
# From the text: as §3, §4
# P. aeruginosa MK1184 = assay: as above; format: cell-based; conditions: Pseudomonas aeruginosa
# From the text: as §3, §4
# E. cloacae P99 = assay: as above; format: cell-based; conditions: Enterobacter cloacae
# From the text: as §3, §4
# S. pyogenes 15 = assay: as above; format: cell-based; conditions: Streptococcus pyogenes
# From the text: as §3, §4
# E. coli 25922 [3] = assay: as above; format: cell-based; conditions: Escherichia coli
# From the text: as §3, §4
# C. freundii 902 = assay: as above; format: cell-based; conditions: Citrobacter freundii
# From the text: as §3, §4
# P. aeruginosa BA = assay: as above; format: cell-based; conditions: Pseudomonas aeruginosa
# From the text: as §3, §4
# E. cloacae 908R = assay: as above; format: cell-based; conditions: Enterobacter cloacae
# From the text: as §3, §4
# P. mirabilis 2117 = assay: as above; format: cell-based; conditions: Proteus mirabilis
# From the text: as §3, §4
# K. pneumoniae 418 = assay: as above; format: cell-based; conditions: Klebsiella pneumoniae
# From the text: as §3, §4
# S. marcescens 69438 = assay: as above; format: cell-based; conditions: Serratia marcescens
# From the text: as §3, §4
# S. pneumoniae BA = assay: as above; format: cell-based; conditions: Streptococcus pneumoniae
# From the text: as §3, §4
# P. aeruginosa 27853 = assay: as above; format: cell-based; conditions: Pseudomonas aeruginosa
# From the text: as §3, §4
# E. cloacae 908SSi = assay: as above; format: cell-based; conditions: Enterobacter cloacae
# From the text: as §3, §4
# [4] = Escherichia coli, sc, E. coli 25922, albino mice, s.c. 1 and 3 hours after infection, survival after 4 days, read-out: ED50
# [5] = P. aeruginosa BA, albino mice, s.c. 1, 3 and 5 hours after infection, survival after 4 days, read-out: ED50
# [6] = P. vulgaris 1028, agar dilution, read-out: MIC
# [7] = P. aeruginosa 799/WT, agar dilution, read-out: MIC
# [8] = K. oxytoca 1082, agar dilution, read-out: MIC
# [9] = P. aeruginosa 799/61, agar dilution, read-out: MIC
# [10] = S. aureus 6538, agar dilution, read-out: MIC
# [11] = P. aeruginosa MK1184, agar dilution, read-out: MIC
# [12] = S. pyogenes 15, agar dilution, read-out: MIC
# [13] = E. coli 25922, agar dilution, read-out: MIC
# [14] = C. freundii 902, agar dilution, read-out: MIC
# [15] = P. aeruginosa BA, agar dilution, read-out: MIC
# [16] = E. cloacae 908R, agar dilution, read-out: MIC
# [17] = P. mirabilis 2117, agar dilution, read-out: MIC
# [18] = K. pneumoniae 418, agar dilution, read-out: MIC
# [19] = S. marcescens 69438, agar dilution, read-out: MIC
# [20] = S. pneumoniae BA, agar dilution, read-out: MIC
# [21] = P. aeruginosa 27853, agar dilution, read-out: MIC
# [22] = E. cloacae 908SSi, agar dilution, read-out: MIC
SMILES,MIC (E. cloacae P99) [µg/mL],ED50 (E. coli 25922 [1]; [4]) [mg/kg],"ED50 [2, 5] [mg/kg]",MIC (P. vulgaris 1028; [6]) [µg/mL],MIC (P. aeruginosa 799/WT; [7]) [µg/mL],MIC (K. oxytoca 1082; [8]) [µg/mL],MIC (P. aeruginosa 799/61; [9]) [µg/mL],MIC (S. aureus 6538; [10]) [µg/mL],MIC (P. aeruginosa MK1184; [11]) [µg/mL],MIC (S. pyogenes 15; [12]) [µg/mL],MIC (E. coli 25922 [3]; [13]) [µg/mL],MIC (C. freundii 902; [14]) [µg/mL],MIC (P. aeruginosa BA; [15]) [µg/mL],MIC (E. cloacae 908R; [16]) [µg/mL],MIC (P. mirabilis 2117; [17]) [µg/mL],MIC (K. pneumoniae 418; [18]) [µg/mL],MIC (S. marcescens 69438; [19]) [µg/mL],MIC (S. pneumoniae BA; [20]) [µg/mL],MIC (P. aeruginosa 27853; [21]) [µg/mL],MIC (E. cloacae 908SSi; [22]) [µg/mL],other results
"Cc1cc(SCC2=C(C(=O)[O-])N3C(=O)[C@@H](NC(=O)/C(=N\OCS(=O)(=O)c4ccc(O)c(O)c4)c4csc(N)n4)[C@H]3SC2)n2nc(CNS(=O)(=O)c3ccc(O)c(O)c3)nc2n1.[Na+] [Example 3, (6R,7R)-7-[(Z)-2-(2-amino-4-thiazolyl)-2-[[[(3,4-dihydroxyphenyl)sulphonyl]methoxy]imino]acetamido]-3-[[[2-[(3,4-dihydroxybenzenesulphonamido)methyl]-5-methyl-s-triazolo[1,5-a]pyrimidin-7-yl]thio]methyl]-8-oxo-5-thia-1-azabicyclo[4.2.0]oct-2-ene-2-carboxylic acid sodium salt (1:1)]",0.5,–,–,–,–,–,–,–,–,–,–,–,–,–,–,–,–,–,–,–,"ED50 (E. coli 25922 [1]; Escherichia coli, 25922, sc): 0.1 mg/kg; ED50 [2]: 0.04 mg/kg; MIC (P. vulgaris 1028; 1028): < 0.1 µg/mL; MIC (P. aeruginosa 799/WT; 799/WT): 0.12 µg/mL; MIC (K. oxytoca 1082; 1082): 0.25 µg/mL; MIC (P. aeruginosa 799/61; 799/61): < 0.1 µg/mL; MIC (S. aureus 6538; 6538): 32 µg/mL; MIC (P. aeruginosa MK1184; MK1184): < 0.1 µg/mL; MIC (S. pyogenes 15; 15): 4 µg/mL; MIC (E. coli 25922 [3]; 25922): < 0.1 µg/mL; MIC (C. freundii 902; 902): 0.12 µg/mL; MIC (P. aeruginosa BA): < 0.1 µg/mL; MIC (E. cloacae 908R; 908R): 1 µg/mL; MIC (P. mirabilis 2117; 2117): < 0.1 µg/mL; MIC (K. pneumoniae 418; 418): < 0.1 µg/mL; MIC (S. marcescens 69438; 69438): 0.12 µg/mL; MIC (S. pneumoniae BA): 2 µg/mL; MIC (P. aeruginosa 27853; 27853): 0.25 µg/mL; MIC (E. cloacae 908SSi; 908SSI): 8 µg/mL"
"Cc1cc(SCC2=C(C(=O)[O-])N3C(=O)[C@@H](NC(=O)/C(=N\OCS(=O)(=O)c4ccc(O)c(O)c4)c4csc(N)n4)[C@H]3SC2)n2nc(COC(=O)c3ccc(O)c(O)c3)nc2n1.[Na+] [Example 7, (6R,7R)-7-[(Z)-2-(2-amino-4-thiazolyl)-2-[[[(3,4-dihydroxyphenyl)sulphonyl]methoxy]imino]acetamido]-3-[[[2-[[(3,4-dihydroxybenzoyl)oxy]methyl]-5-methyl-s-triazolo[1,5-a]pyrimidin-7-yl]thio]methyl]-8-oxo-5-thia-1-azabicyclo[4.2.0]oct-2-ene-2-carboxylic acid sodium salt (1:1)]",1,–,–,–,–,–,–,–,–,–,–,–,–,–,–,–,–,–,–,–,"ED50 (E. coli 25922 [1]; Escherichia coli, 25922, sc): < 0.3 mg/kg; ED50 [2]: 0.08 mg/kg; MIC (P. vulgaris 1028; 1028): 0.12 µg/mL; MIC (P. aeruginosa 799/WT; 799/WT): 0.5 µg/mL; MIC (K. oxytoca 1082; 1082): < 0.1 µg/mL; MIC (P. aeruginosa 799/61; 799/61): 0.25 µg/mL; MIC (S. aureus 6538; 6538): 32 µg/mL; MIC (P. aeruginosa MK1184; MK1184): < 0.1 µg/mL; MIC (S. pyogenes 15; 15): 4 µg/mL; MIC (E. coli 25922 [3]; 25922): < 0.1 µg/mL; MIC (C. freundii 902; 902): 0.12 µg/mL; MIC (P. aeruginosa BA): 0.12 µg/mL; MIC (E. cloacae 908R; 908R): 2 µg/mL; MIC (P. mirabilis 2117; 2117): 0.12 µg/mL; MIC (K. pneumoniae 418; 418): < 0.1 µg/mL; MIC (S. marcescens 69438; 69438): 0.12 µg/mL; MIC (S. pneumoniae BA): 2 µg/mL; MIC (P. aeruginosa 27853; 27853): 1 µg/mL; MIC (E. cloacae 908SSi; 908SSI): 4 µg/mL"
"CC(C)(O/N=C(\C(=O)N[C@@H]1C(=O)N2C(C(=O)O)=C(CS(=O)(=O)c3ccc(O)c(O)c3)CS[C@H]12)c1csc(N)n1)C(=O)NO [Example 21, (6R,7R)-7-[(Z)-2-(2-amino-4-thiazolyl)-2-[[(1-hydroxycarbamoyl)-1-methylethoxy]imino]acetamido]-3-[[(3,4-dihydroxyphenyl)sulphonyl]methyl]-8-oxo-5-thia-1-azabicyclo[4.2.0]oct-2-ene-2-carboxylic acid]",16,< 0.3,0.39,2,8,1,0.25,> 32,> 32,16,1,4,8,8,1,0.5,1,8,8,8,–
"Nc1nc(/C(=N/OCS(=O)(=O)c2ccc(O)c(O)c2)C(=O)N[C@@H]2C(=O)N3C(C(=O)O)=C(CS(=O)(=O)c4ccc(O)c(O)c4)CS[C@H]23)cs1 [Example 22, (6R,7R)-7-[(Z)-2-(2-amino-4-thiazolyl)-2-[[(3,4-dihydroxysulphonyl)methoxy]imino]acetamido]-3-[[(3,4-dihydroxyphenyl)sulphonyl]methyl]-8-oxo-5-thia-1-azabicyclo[4.2.0]oct-2-ene-2-carboxylic acid sodium salt]",32,< 0.05,1.8,16,16,0.5,0.25,> 32,> 32,16,8,16,> 32,32,16,0.5,16,16,32,16,–
"CC(C)(O/N=C(\C(=O)N[C@@H]1C(=O)N2C(C(=O)O)=C(CS(=O)(=O)c3ccc(O)c(O)c3)CS[C@H]12)c1csc(N)n1)C(=O)NNC(=O)c1ccc(O)c(O)c1 [Example 47, (6R,7R)-7-[(Z)-2-(2-amino-4-thiazolyl)-2-[[1-[3-(3,4-dihydroxybenzoyl)carbazoyl]-1-methylethoxy]imino]acetamido]-3-[[(3,4-dihydroxyphenyl)sulphonyl]methyl]-8-oxo-5-thia-1-azabicyclo[4.2.0]oct-2-ene-2-carboxylic acid]",16,< 0.1,0.1,0.25,4,0.25,0.25,32,> 32,1,0.12,0.5,4,1,0.12,< 0.1,0.25,1,4,8,–
